# In patent US7297353B2, “Use of anemonin for treating aseptic inflammations” (priority 2000, dated 2007):
# Values joined by “and” are separate entries in the source; they are usually repeats but may differ in a detail not shown here. Equal values may be shown once.
# Columns and labels:
# IL-2 = experiment: Cytokine production from splenocytes, ConA stimulation, IL-2 (ELISA); type: cell-based, murine; details: 24 h
# Procedure: (§1) For splenocyte cytokine production assay, 5×10^6 cells per well were inoculated into a 24-well tissue culture plate with ConA (5 mg/L) or Sac (1:10000) stimulation. Different concentrations of Anemonin were added in a final volume of 2 ml. Cells were incubated at 37° C., 5% CO2 for 24 h and supernatants were harvested, IFN-γ, IL-10, IL12 (p40) and IL-2 in supernatants were measured by the sandwich enzyme-linked immunosorbent assay (ELISA) as specified by the manufacturer (BD Bioscience pharmingen, US). Concentrations of the cytokine productions were calculated based on standard curves obtained from serial dilutions of murine cytokines (r IFN-γ, rIL-10, rIL12, rIL-2). As shown in Tables C-3 and C-4, high-dose Anemonin (1-100 μg/ml) inhibited all kinds of cytokine release induced by ConA or Sac.
# [1] = In vitro percutaneous penetration velocity of anemonin; type: in vitro ADME; design: steady penetration velocity into derma: unit not given here; details: for Js: steady penetration velocity / Q24: cumulative amount of percutaneous penetration medicament per square centimeter for 24 hours / Tlag: time lag: n = 3
# IFN-γ [2] = experiment: Cytokine production from splenocytes, Sac stimulation, IFN-γ (ELISA); type: cell-based, murine; details: 24 h
# Procedure: as §1
# [3] = system: dimethylbenene-induced ear swelling; experiment: Acute ear edema of mice induced by dimethylbenene; type: in vivo; details: for Ear swellin: 50 μl on ear, two hours after dimethylbenene
# Procedure: The mice were randomly divided into 5 groups. Thirty minutes and sixty minutes after applying dimethylbenene (50 μl) to the anterior and posterior surfaces of the right ear, 25% ethanol (50 μl), the linimene solutions of anemonin (0.05, 0.5, 5 mg/ml, 50 μl) and FAA (a positive control) were applied on the same ears of mice respectively. The left ear was considered as control. Two hours after dimethylbenene application, mice were killed and both ears were removed. Circular sections were taken, using a 9 mm-diameter borer, and weighed. The increase in weight caused by the irritant was measured by subtracting the weight of the untreated left ear section from that of the treated right ear section.
# [4] = system: murine spleens cells stimulated with LPS; experiment: B-cell proliferation, spleen cells stimulated with LPS ([3H]-thymidine uptake); type: cell-based, ICR mice; details: for [^3H]-TDRincorparation(CPM × 10^−3): LPS 10 μg/ml, 48 hrs
# Procedure: Fresh spleen cells were obtained from ICR mice (male, 7-9 weeks old), 5×10^5 of spleen cells were cultured in 96-well flat plates with […] of RPMI 1640 media containing 10% FBS, 100 U/ml penicillin and 100 μg/ml streptomyin in a humidified, 37° C., 5% CO2 incubator for 48 hrs. The cultures were either unstimulated, or were stimulated with 5 μg/ml of ConA or 10 μg/ml of LPS to induce T cells or B cells proliferative responses respectively. The compounds were added in cultures with indicated concentrations to test their bioactivities. Profileration was assessed in terms of uptake of [^3H]-thymidine during 6-12 hours pulsing with 20 kBq [^3H]-thymidine/well, then the cells were harvested by a Basic 96 harvester, and counted in a 1540 MicroBeta Trilux (PerkinElmer Life Sciences).
# [5] = system: staphylococcus, streptococcus, Bacillus diphtheriae, Mycobacterium tuberculosis, and E. coli; details: cited from earlier work
# spleen cells = experiment: Cytotoxicity effect of anemonin (MTT assay); type: cell-based, ICR mice; details: for OD value: 48 h
# Procedure: The cell viability was determined by using 3-(4,5-dimethylthiazol-2-yl)-2,5-Diphenyl-tetrazolium bromide (MTT) assay. In brief, fresh spleen cells were obtained from ICR mice (male, 7-9 weeks old), 5×10^5 of spleen cells were cultured in 96-well flat plates. The medium was contained various concentrations of anemonin. After incubation for up to 48 h, MTT solution (5 mg/m in saline) was added to the 96 plates and cells were allowed to incubate for 6 h at 37° C. After the medium had been removed 100 μl, the cell and dye crystals were solubilized by adding 100 μl 10% sodium dodecyl sulfate (SDS), and then absorption was measured at 570 nm with a model 550-microplate reader (Bio-Rad).
# [6] = Stability test for prolonged storage; type: physicochemical; details: anemonin in the present medication
# Description: According to preferred embodiments of the present invention, when the extracted anemonin or anemonin extract liquor is mixed with one or more Chinese herbs or chemical pharmaceuticals, the stability of the anemonin is not affected by the combined Chinese herbs, chemical components contained therein or the pharmaceuticals, and the amenonin can still effectively treat various aseptic inflammations.
# IFN-γ [7] = experiment: Cytokine production from splenocytes, ConA stimulation, IFN-γ (ELISA); type: cell-based, murine; details: 24 h
# Procedure: as §1
# IL-10 = experiment: Cytokine production from splenocytes, Sac stimulation, IL-10 (ELISA); type: cell-based, murine; details: 24 h
# Procedure: as §1
smiles,measurement,setting,value
"O=C1C=CC2(CCC23C=CC(=O)O3)O1 (stereo not drawn) [Anemonin, anemonin]",IL-2,IL-2; 0.001 μg/ml,482 ± 7 pg/mL
same,IL-2,IL-2; 0.01 μg/ml,479 ± 5 pg/mL
same,IL-2,IL-2; 0.1 μg/ml,461 ± 2 pg/mL
same,IL-2,IL-2; 1 μg/ml,190 ± 2 pg/mL
same,IL-2,IL-2; 10 μg/ml,22 ± 1 pg/mL
same,IL-2,IL-2; 100 μg/ml,28 ± 1 pg/mL
same,ER: increased permeation times,[1]; 30% ethanol solution,2.0
same,Js: steady penetration velocity,[1]; 30% ethanol solution,4.65 ± 0.47 μg · cm^−2 · h^−1
same,Q24: cumulative amount of percutaneous penetration medicament per square centimeter for 24 hours,[1]; 30% ethanol solution,104.45 ± 12.58 μg · cm^−2
same,Tlag: time lag,[1]; 30% ethanol solution,1.09 ± 0.20 h
same,steady penetration velocity into derma,[1]; 30% of ethanol,4.65
same,ER: increased permeation times,[1]; water-saturated solution,1.0
same,Js: steady penetration velocity,[1]; water-saturated solution,2.28 μg · cm^−2 · h^−1 and 2.28 ± 0.39 μg · cm^−2 · h^−1
same,Q24: cumulative amount of percutaneous penetration medicament per square centimeter for 24 hours,[1]; water-saturated solution,50.49 ± 6.48 μg · cm^−2
same,Tlag: time lag,[1]; water-saturated solution,2.05 ± 0.74 h
same,IFN-γ,IFN-γ [2]; 0.001 μg/ml,237 ± 3 pg/mL
same,IFN-γ,IFN-γ [2]; 0.01 μg/ml,230 ± 23 pg/mL
same,IFN-γ,IFN-γ [2]; 0.1 μg/ml,143 ± 0 pg/mL
same,IFN-γ,IFN-γ [2]; 1 μg/ml,95 ± 2 pg/mL
same,IFN-γ,IFN-γ [2]; 10 μg/ml,98 ± 7 pg/mL
same,IFN-γ,IFN-γ [2]; 100 μg/ml,89 ± 2 pg/mL
same,Ear swellin,[3]; 0.05 mg/ml liniment,18 ± 7 mg
same,Ear swellin,[3]; 0.5 mg/ml liniment,16 ± 4 mg
same,Ear swellin,[3]; 5 mg/ml liniment,12 ± 4 mg
same,ear edema formation,[3]; 0.05-5 mg/ml applied,inhibited in a dose-dependent manner
same,inhibitory effect on ear edema,[3]; doses of 2.5-25 μg/ear,statistically significant
same,[^3H]-TDRincorparation(CPM × 10^−3),[4]; 0.001 μg/ml,52.0 ± 2.27 CPM × 10^−3
same,[^3H]-TDRincorparation(CPM × 10^−3),[4]; 0.01 μg/ml,47.2 ± 3.41 CPM × 10^−3
same,[^3H]-TDRincorparation(CPM × 10^−3),[4]; 0.1 μg/ml,47.5 ± 3.60 CPM × 10^−3
same,[^3H]-TDRincorparation(CPM × 10^−3),[4]; 1 μg/ml,34.4 ± 2.41 CPM × 10^−3
same,[^3H]-TDRincorparation(CPM × 10^−3),[4]; 10 μg/ml,0.11 ± 0.15 CPM × 10^−3
same,[^3H]-TDRincorparation(CPM × 10^−3),[4]; 100 μg/ml,0.17 ± 0.26 CPM × 10^−3
same,B-cell proliferation,[4]; 1-100 μg/ml,significantly inhibited
same,inhibitory against bacteria,[5],inhibitory
same,cytotoxicity,spleen cells; 0.001 ug/ml,No
same,OD value,"spleen cells; 0.001 ug/ml, 570 nM",0.196 ± 0.006
same,cytotoxicity,spleen cells; 0.01 ug/ml,No
same,OD value,spleen cells; 0.01 ug/ml,0.193 ± 0.007
same,cytotoxicity,spleen cells; 0.1 ug/ml,No
same,OD value,spleen cells; 0.1 ug/ml,0.200 ± 0.011
same,cytotoxicity,spleen cells; 1 ug/ml,Yes
same,OD value,spleen cells; 1 ug/ml,0.160 ± 0.004
same,cytotoxicity,spleen cells; 10 ug/ml,Yes
same,OD value,spleen cells; 10 ug/ml,0.135 ± 0.003
same,cytotoxicity,spleen cells; 100 ug/ml,Yes
same,OD value,spleen cells; 100 ug/ml,0.118 ± 0.011
same,cytotoxic effects,spleen cells; 1-100 μg/ml,cytotoxic effects in a dose-dependent manner
same,stability on prolonged storage,[6],at least 5 years
same,IFN-γ,IFN-γ [7]; 0.001 μg/ml,2405 ± 171 pg/mL
same,IFN-γ,IFN-γ [7]; 0.01 μg/ml,2651 ± 120 pg/mL
same,IFN-γ,IFN-γ [7]; 0.1 μg/ml,2298 ± 4 pg/mL
same,IFN-γ,IFN-γ [7]; 1 μg/ml,508 ± 16 pg/mL
same,IFN-γ,IFN-γ [7]; 10 μg/ml,94 ± 0 pg/mL
same,IFN-γ,IFN-γ [7]; 100 μg/ml,89 ± 3 pg/mL
same,IL-10,IL-10; 0.001 μg/ml,1242 ± 46 pg/mL
same,IL-10,IL-10; 0.01 μg/ml,1235 ± 19 pg/mL
same,IL-10,IL-10; 0.1 μg/ml,1229 ± 9 pg/mL
same,IL-10,IL-10; 1 μg/ml,749 ± 64 pg/mL
same,IL-10,IL-10; 10 μg/ml,249 ± 0 pg/mL
same,IL-10,IL-10; 100 μg/ml,274 ± 18 pg/mL
